This note sets out measurements from publication PMC12748989 (Nature Communications, 2025).

One assay has as its system PBMC. As to conditions: 12.5 µM.

As for `CC[C@H](C)[C@H](N)C(=O)N[C@@H](CC(N)=O)C(=O)N[C@@H](CC(C)C)C(=O)N[C@@H](CCCCN)C(=O)N[C@@H](C)C(=O)N[C@@H](CC(C)C)C(=O)N[C@@H](C)C(=O)N[C@@H](C)C(=O)N[C@@H](CC(C)C)C(=O)N[C@@H](CCC(=O)O)C(=O)N[C@@H](CCCCN)C(=O)N[C@@H](CCCCN)C(=O)N[C@H](C(=O)N[C@@H](CC(C)C)C(N)=O)[C@@H](C)CC` [E10], the “Average (percentage cell inhibition), Mastoparan PBMC” value with PBMC is reported as -0.2344%. In the assay on MDA-MB-231 cells, the “Average (percentage cell inhibition), Dmastoparan MDA-MB231 12.5uM” value was 7.891%.

For `CC[C@H](C)[C@H](N)C(=O)N[C@@H](CC(N)=O)C(=O)N[C@@H](CC(C)C)C(=O)N[C@@H](CCCCN)C(=O)N[C@@H](C)C(=O)N[C@@H](CC(C)C)C(=O)N[C@@H](C)C(=O)N[C@@H](C)C(=O)N[C@@H](CC(C)C)C(=O)N[C@@H](C)C(=O)N[C@@H](CCC(=O)O)C(=O)N[C@@H](CCCCN)C(=O)N[C@H](C(=O)N[C@@H](CC(C)C)C(N)=O)[C@@H](C)CC` [E11], the “Average (percentage cell inhibition), Mastoparan PBMC” value with PBMC is on record as 5.959%. Moreover, in the assay on MDA-MB-231 cells, the “Average (percentage cell inhibition), Dmastoparan MDA-MB231 12.5uM” value worked out at 19.6815%.

Regarding `CC[C@H](C)[C@H](N)C(=O)N[C@@H](CC(N)=O)C(=O)N[C@@H](CC(C)C)C(=O)N[C@@H](CCCCN)C(=O)N[C@@H](C)C(=O)N[C@@H](CC(C)C)C(=O)N[C@@H](C)C(=O)N[C@@H](C)C(=O)N[C@@H](CC(C)C)C(=O)N[C@@H](C)C(=O)N[C@@H](CCCCN)C(=O)N[C@@H](CCC(=O)O)C(=O)N[C@H](C(=O)N[C@@H](CC(C)C)C(N)=O)[C@@H](C)CC` [E12], the “Average (percentage cell inhibition), Mastoparan PBMC” value in the assay on PBMC is listed as 4.97%. Moreover, in the assay on MDA-MB-231 cells, the “Average (percentage cell inhibition), Dmastoparan MDA-MB231 12.5uM” value was 21.4723%.

Regarding `CC[C@H](C)[C@H](N)C(=O)N[C@@H](CC(N)=O)C(=O)N[C@@H](CC(C)C)C(=O)N[C@@H](CCCCN)C(=O)N[C@@H](C)C(=O)N[C@@H](CC(C)C)C(=O)N[C@@H](C)C(=O)N[C@@H](C)C(=O)N[C@@H](CC(C)C)C(=O)N[C@@H](C)C(=O)N[C@@H](CCCCN)C(=O)N[C@@H](CCCCN)C(=O)N[C@@H](CCC(=O)O)C(=O)N[C@@H](CC(C)C)C(N)=O` [E13], the “Average (percentage cell inhibition), Mastoparan PBMC” value in the assay on PBMC is -2.907%. Further, the “Average (percentage cell inhibition), Dmastoparan MDA-MB231 12.5uM” value in the assay with MDA-MB-231 cells stood at 42.4043%.

In the case of `CC[C@H](C)[C@H](N)C(=O)N[C@@H](CC(N)=O)C(=O)N[C@@H](CC(C)C)C(=O)N[C@@H](CCCCN)C(=O)N[C@@H](C)C(=O)N[C@@H](CC(C)C)C(=O)N[C@@H](C)C(=O)N[C@@H](C)C(=O)N[C@@H](CC(C)C)C(=O)N[C@@H](C)C(=O)N[C@@H](CCCCN)C(=O)N[C@@H](CCCCN)C(=O)N[C@H](C(=O)N[C@@H](CCC(=O)O)C(N)=O)[C@@H](C)CC` [E14], the “Average (percentage cell inhibition), Mastoparan PBMC” value with PBMC is reported as 2.998%. Further, in the assay on MDA-MB-231 cells, the “Average (percentage cell inhibition), Dmastoparan MDA-MB231 12.5uM” value turned out to be 33.8434%.

In the case of `CC[C@H](C)[C@H](NC(=O)[C@H](CCCCN)NC(=O)[C@H](CCCCN)NC(=O)[C@H](C)NC(=O)[C@H](CC(C)C)NC(=O)[C@H](C)NC(=O)[C@H](C)NC(=O)[C@H](CC(C)C)NC(=O)[C@H](C)NC(=O)[C@H](CCCCN)NC(=O)[C@H](CC(C)C)NC(=O)[C@H](CC(N)=O)NC(=O)CN)C(=O)N[C@@H](CC(C)C)C(N)=O` [G1], the “Average (percentage cell inhibition), Mastoparan PBMC” value in the assay on PBMC is 6.436%. Also, in the assay with MDA-MB-231 cells, the “Average (percentage cell inhibition), Dmastoparan MDA-MB231 12.5uM” value is reported as 44.9778%.

Take `CC[C@H](C)[C@H](N)C(=O)NCC(=O)N[C@@H](CC(C)C)C(=O)N[C@@H](CCCCN)C(=O)N[C@@H](C)C(=O)N[C@@H](CC(C)C)C(=O)N[C@@H](C)C(=O)N[C@@H](C)C(=O)N[C@@H](CC(C)C)C(=O)N[C@@H](C)C(=O)N[C@@H](CCCCN)C(=O)N[C@@H](CCCCN)C(=O)N[C@H](C(=O)N[C@@H](CC(C)C)C(N)=O)[C@@H](C)CC` [G2]: the “Average (percentage cell inhibition), Mastoparan PBMC” value in the assay with PBMC came to 15.6884%. In addition, the “Average (percentage cell inhibition), Dmastoparan MDA-MB231 12.5uM” value with MDA-MB-231 cells was 71.0378%.

For `CC[C@H](C)[C@H](N)C(=O)N[C@@H](CC(N)=O)C(=O)NCC(=O)N[C@@H](CCCCN)C(=O)N[C@@H](C)C(=O)N[C@@H](CC(C)C)C(=O)N[C@@H](C)C(=O)N[C@@H](C)C(=O)N[C@@H](CC(C)C)C(=O)N[C@@H](C)C(=O)N[C@@H](CCCCN)C(=O)N[C@@H](CCCCN)C(=O)N[C@H](C(=O)N[C@@H](CC(C)C)C(N)=O)[C@@H](C)CC` [G3], the “Average (percentage cell inhibition), Mastoparan PBMC” value with PBMC came to 8.745%. Also, in the assay with MDA-MB-231 cells, the “Average (percentage cell inhibition), Dmastoparan MDA-MB231 12.5uM” value is 40.6724%.

With `CC[C@H](C)[C@H](N)C(=O)N[C@@H](CC(N)=O)C(=O)N[C@@H](CC(C)C)C(=O)NCC(=O)N[C@@H](C)C(=O)N[C@@H](CC(C)C)C(=O)N[C@@H](C)C(=O)N[C@@H](C)C(=O)N[C@@H](CC(C)C)C(=O)N[C@@H](C)C(=O)N[C@@H](CCCCN)C(=O)N[C@@H](CCCCN)C(=O)N[C@H](C(=O)N[C@@H](CC(C)C)C(N)=O)[C@@H](C)CC` [G4], the “Average (percentage cell inhibition), Mastoparan PBMC” value in the assay on PBMC was 15.8704%. The “Average (percentage cell inhibition), Dmastoparan MDA-MB231 12.5uM” value with MDA-MB-231 cells was 39.0682%.

With `CC[C@H](C)[C@H](N)C(=O)N[C@@H](CC(N)=O)C(=O)N[C@@H](CC(C)C)C(=O)N[C@@H](CCCCN)C(=O)NCC(=O)N[C@@H](CC(C)C)C(=O)N[C@@H](C)C(=O)N[C@@H](C)C(=O)N[C@@H](CC(C)C)C(=O)N[C@@H](C)C(=O)N[C@@H](CCCCN)C(=O)N[C@@H](CCCCN)C(=O)N[C@H](C(=O)N[C@@H](CC(C)C)C(N)=O)[C@@H](C)CC` [G5], the “Average (percentage cell inhibition), Mastoparan PBMC” value in the assay with PBMC is given as 4.313%. Moreover, the “Average (percentage cell inhibition), Dmastoparan MDA-MB231 12.5uM” value with MDA-MB-231 cells is 39.6978%.

Take `CC[C@H](C)[C@H](N)C(=O)N[C@@H](CC(N)=O)C(=O)N[C@@H](CC(C)C)C(=O)N[C@@H](CCCCN)C(=O)N[C@@H](C)C(=O)NCC(=O)N[C@@H](C)C(=O)N[C@@H](C)C(=O)N[C@@H](CC(C)C)C(=O)N[C@@H](C)C(=O)N[C@@H](CCCCN)C(=O)N[C@@H](CCCCN)C(=O)N[C@H](C(=O)N[C@@H](CC(C)C)C(N)=O)[C@@H](C)CC` [G6]: the “Average (percentage cell inhibition), Mastoparan PBMC” value with PBMC stood at 3.256%. Also, the “Average (percentage cell inhibition), Dmastoparan MDA-MB231 12.5uM” value with MDA-MB-231 cells came to 27.1038%.

Take `CC[C@H](C)[C@H](N)C(=O)N[C@@H](CC(N)=O)C(=O)N[C@@H](CC(C)C)C(=O)N[C@@H](CCCCN)C(=O)N[C@@H](C)C(=O)N[C@@H](CC(C)C)C(=O)NCC(=O)N[C@@H](C)C(=O)N[C@@H](CC(C)C)C(=O)N[C@@H](C)C(=O)N[C@@H](CCCCN)C(=O)N[C@@H](CCCCN)C(=O)N[C@H](C(=O)N[C@@H](CC(C)C)C(N)=O)[C@@H](C)CC` [G7]: the “Average (percentage cell inhibition), Mastoparan PBMC” value in the assay with PBMC was 11.7718%. For the same compound, in the assay on MDA-MB-231 cells, the “Average (percentage cell inhibition), Dmastoparan MDA-MB231 12.5uM” value was found to be 49.0864%.

For `CC[C@H](C)[C@H](N)C(=O)N[C@@H](CC(N)=O)C(=O)N[C@@H](CC(C)C)C(=O)N[C@@H](CCCCN)C(=O)N[C@@H](C)C(=O)N[C@@H](CC(C)C)C(=O)N[C@@H](C)C(=O)NCC(=O)N[C@@H](CC(C)C)C(=O)N[C@@H](C)C(=O)N[C@@H](CCCCN)C(=O)N[C@@H](CCCCN)C(=O)N[C@H](C(=O)N[C@@H](CC(C)C)C(N)=O)[C@@H](C)CC` [G8], the “Average (percentage cell inhibition), Mastoparan PBMC” value with PBMC was 1.421%. In the assay with MDA-MB-231 cells, the “Average (percentage cell inhibition), Dmastoparan MDA-MB231 12.5uM” value is listed as 28.4057%.

Regarding `CC[C@H](C)[C@H](N)C(=O)N[C@@H](CC(N)=O)C(=O)N[C@@H](CC(C)C)C(=O)N[C@@H](CCCCN)C(=O)N[C@@H](C)C(=O)N[C@@H](CC(C)C)C(=O)N[C@@H](C)C(=O)N[C@@H](C)C(=O)NCC(=O)N[C@@H](C)C(=O)N[C@@H](CCCCN)C(=O)N[C@@H](CCCCN)C(=O)N[C@H](C(=O)N[C@@H](CC(C)C)C(N)=O)[C@@H](C)CC` [G9], the “Average (percentage cell inhibition), Mastoparan PBMC” value in the assay on PBMC was 7.302%. The “Average (percentage cell inhibition), Dmastoparan MDA-MB231 12.5uM” value with MDA-MB-231 cells is reported as 11.2187%.
